Laboratory results as given in publication PMC10893103, “Cyclodextrin-Enabled Enantioselective Complexation Study of Cathinone Analogs” (Molecules, 2024).

test: Affinity capillary electrophoresis (ACE), pH 7.4; conditions: 30 mM phosphate buffer pH 7.4, 25 °C, 15 kV
Source text: To assess the CD complex formation capability of the five cathinone derivatives, we devised a screening ACE method tailored to closely mimic physiological conditions. In a preliminary study, the ACE conditions were optimized regarding the type, pH, and concentration of the background electrolyte, the applied voltage, and the injection parameters. […] In order to avoid high Joule heat generation, sufficiently low voltage should be used; thus, after registering the Ohm plot (I-U plot), it was set to 15 kV. Throughout our ACE measurements, corrections for viscosity and ionic strength were systematically implemented to ensure precise determination of complex stability constants.
The CE experiments were performed on a HP ^3DCE and on an Agilent 7100 instrument (Agilent Technologies, Waldbronn, Germany) equipped with a photodiode array detector and the Chemstation software for data handling. Untreated fused silica capillaries (50 µm id, 48.5 cm total, 40 cm effective length) were purchased from Agilent. Conditioning of new capillary was conducted by flushing with 1 M NaOH followed by 0.1 M NaOH and water for 30 min each. Prior to all runs, the capillary was preconditioned by rinsing with BGE (2 min). The temperature of the capillary was set to 25 °C. UV detection was performed at 215 nm, and 15–25 kV voltage was applied. Samples were injected hydrodynamically (150 mbar·sec, optimized in the 50–500 mbar·sec range). The CE-pH measurements were carried out applying 25 kV voltage and 200 mbar·sec injection.
The background electrolyte of the CE-pH measurements contained 25 mM Na2HPO4 and 25 mM Na2B4O7, and the appropriate pH was adjusted with hydrochloric acid. During the ACE measurements, 30 mM phosphate buffer pH 7.4 (30 mM Na2HPO4—NaOH) was used. The running buffer was 20 mM acetic acid adjusting with 1 M Tris the pH to 4.5 during the chiral screening experiments. The BGEs contained CDs at various concentrations (0.25–20 mM) in the ACE experiments and 1-5-10 mM in the chiral method optimization experiments.
Stock solutions of each cathinone analog (mephedrone, flephedrone, 4-MEC, butylone, and MDPV) were prepared separately in methanol (1 mg/ml), and appropriate dilutions with water were used to prepare sample solutions for the CE-pH titration and for the ACE studies applying DMSO as EOF marker, while their mixture was used during the chiral separation studies.
The simplest way to determine the mobility is from the migration times (tmax) read from the electropherograms from which the apparent mobility could be calculated, but more accurate mobility values could be obtained by the determination with the Haarhoff–van der Linde (HVL) function based on Equation (2). (2) HVLδ(t;a0,a1,a2,a3δ)=a0/a2a3δ2πexp[−1/2(t−a1/a2)^2]/1/exp(a3δ)−1+1/2[1+erf(t−a1/2a2)] where a0 is the area of the HVL function, a1 is the position of the Gaussian component, a2 is the standard deviation of the Gaussian component, and a3δ is the peak shape distortion. The application of the HVL function is necessary in the case of accurate ACE measurements because, in several cases, the peaks are distorted due to the complex formation, which makes reading the migration times and calculating the mobility more difficult and imprecise.
The most popular technique for quantifying the analyte–ligand interaction with CE is mobility shift ACE.

| Compound | 4-MEC–CD complex stability constant, Kstab/Kstab1 (unresolved or first migrating enantiomer) [M⁻¹] | Butylone–CD complex stability constant, Kstab/Kstab1 (unresolved or first migrating enantiomer) [M⁻¹] | MDPV–CD complex stability constant, Kstab/Kstab1 (unresolved or first migrating enantiomer) [M⁻¹] | Flephedrone–CD complex stability constant, Kstab/Kstab1 (unresolved or first migrating enantiomer) [M⁻¹] | MDPV–CD complex stability constant, Kstab2 (second migrating enantiomer) [M⁻¹] | Mephedrone–CD complex stability constant, Kstab/Kstab1 (unresolved or first migrating enantiomer) [M⁻¹] | Butylone–CD complex stability constant, Kstab2 (second migrating enantiomer) [M⁻¹] | 4-MEC–CD complex stability constant, Kstab2 (second migrating enantiomer) [M⁻¹] | Flephedrone–CD complex stability constant, Kstab2 (second migrating enantiomer) [M⁻¹] | Mephedrone–CD complex stability constant, Kstab2 (second migrating enantiomer) [M⁻¹] |
| --- | --- | --- | --- | --- | --- | --- | --- | --- | --- | --- |
| CO[C@H]1[C@H]2O[C@H]3[C@H](OS(=O)(=O)O)[C@@H](OC)[C@@H](O[C@H]4[C@H](OS(=O)(=O)O)[C@@H](OC)[C@@H](O[C@H]5[C@H](OS(=O)(=O)O)[C@@H](OC)[C@@H](O[C@H]6[C@H](OS(=O)(=O)O)[C@@H](OC)[C@@H](O[C@H]7[C@H](OS(=O)(=O)O)[C@@H](OC)[C@@H](O[C@H]8[C@H](OS(=O)(=O)O)[C@@H](OC)[C@@H](O[C@@H]([C@@H]1OS(=O)(=O)O)[C@@H](COS(=O)(=O)O)O2)O[C@@H]8COS(=O)(=O)O)O[C@@H]7COS(=O)(=O)O)O[C@@H]6COS(=O)(=O)O)O[C@@H]5COS(=O)(=O)O)O[C@@H]4COS(=O)(=O)O)O[C@@H]3COS(=O)(=O)O [HMDiSu-β-CD, heptakis-(2-O-methyl, 3,6-O-disulfo)-β-CD] | 260 ± 10 | 265 ± 20 | 165 ± 25 | – | – | – | – | – | – | – |
| OCCCNC[C@H]1O[C@@H]2O[C@H]3[C@H](O)[C@@H](O)[C@@H](O[C@H]4[C@H](O)[C@@H](O)[C@@H](O[C@H]5[C@H](O)[C@@H](O)[C@@H](O[C@H]6[C@H](O)[C@@H](O)[C@@H](O[C@H]7[C@H](O)[C@@H](O)[C@@H](O[C@H]8[C@H](O)[C@@H](O)[C@@H](O[C@H]1[C@H](O)[C@H]2O)O[C@@H]8CO)O[C@@H]7CO)O[C@@H]6CO)O[C@@H]5CO)O[C@@H]4CO)O[C@@H]3CO [HPA-β-CD, mono-6^A-(3-hydroxy)propylamino-β-CD] | 145 ± 15 | 85 ± 15 | 840 ± 65 | 500 ± 105 | 570 ± 80 | 140 ± 35 | – | – | – | – |
| CO[C@@H]1[C@@H](OC)[C@H]2O[C@H]3[C@H](OC)[C@@H](OC)[C@@H](O[C@H]4[C@H](OC)[C@@H](OC)[C@@H](O[C@H]5[C@H](OC)[C@@H](OC)[C@@H](O[C@H]6[C@H](OC)[C@@H](OC)[C@@H](O[C@H]7[C@H](OC)[C@@H](OC)[C@@H](O[C@@H]1[C@@H](COS(=O)(=O)O)O2)O[C@@H]7COS(=O)(=O)O)O[C@@H]6COS(=O)(=O)O)O[C@@H]5COS(=O)(=O)O)O[C@@H]4COS(=O)(=O)O)O[C@@H]3COS(=O)(=O)O [HxDMS-α-CD, hexakis-(2,3-O-dimethyl, 6-O-sulfo)-α-CD] | 55 ± 15 | 550 ± 95 | 220 ± 30 | 105 ± 12 | – | 270 ± 110 | – | – | – | – |
| NC[C@H]1O[C@@H]2O[C@H]3[C@H](O)[C@@H](O)[C@@H](O[C@H]4[C@H](O)[C@@H](O)[C@@H](O[C@H]5[C@H](O)[C@@H](O)[C@@H](O[C@H]6[C@H](O)[C@@H](O)[C@@H](O[C@H]7[C@H](O)[C@@H](O)[C@@H](O[C@H]8[C@H](O)[C@@H](O)[C@@H](O[C@H]1[C@H](O)[C@H]2O)O[C@@H]8CO)O[C@@H]7CO)O[C@@H]6CO)O[C@@H]5CO)O[C@@H]4CO)O[C@@H]3CO [MA-β-CD, mono-(6-N-amino-6-deoxy)-β-CD] | 180 ± 40 | 140 ± 25 | 350 ± 60 | 425 ± 80 | 200 ± 30 | 225 ± 35 | 340 ± 50 | – | – | – |
| C[N+]1(C[C@H]2O[C@@H]3O[C@H]4[C@H](O)[C@@H](O)[C@@H](O[C@H]5[C@H](O)[C@@H](O)[C@@H](O[C@H]6[C@H](O)[C@@H](O)[C@@H](O[C@H]7[C@H](O)[C@@H](O)[C@@H](O[C@H]8[C@H](O)[C@@H](O)[C@@H](O[C@H]9[C@H](O)[C@@H](O)[C@@H](O[C@H]2[C@H](O)[C@H]3O)O[C@@H]9CO)O[C@@H]8CO)O[C@@H]7CO)O[C@@H]6CO)O[C@@H]5CO)O[C@@H]4CO)CCCCC1 [MePIP-β-CD, mono-6^A-(N-methyl-piperidine)-β-CD] | 50 ± 5 | 40 ± 3 | 85 ± 5 | 40 ± 3 | – | 45 ± 5 | – | – | – | – |
| CO[C@@H]1[C@@H](OC)[C@H]2O[C@H]3[C@H](OC)[C@@H](OC)[C@@H](O[C@H]4[C@H](OC)[C@@H](OC)[C@@H](O[C@H]5[C@H](OC)[C@@H](OC)[C@@H](O[C@H]6[C@H](OC)[C@@H](OC)[C@@H](O[C@H]7[C@H](OC)[C@@H](OC)[C@@H](O[C@H]8[C@H](OC)[C@@H](OC)[C@@H](O[C@H]9[C@H](OC)[C@@H](OC)[C@@H](O[C@@H]1[C@@H](COS(=O)(=O)O)O2)O[C@@H]9COS(=O)(=O)O)O[C@@H]8COS(=O)(=O)O)O[C@@H]7COS(=O)(=O)O)O[C@@H]6COS(=O)(=O)O)O[C@@H]5COS(=O)(=O)O)O[C@@H]4COS(=O)(=O)O)O[C@@H]3COS(=O)(=O)O [ODMS-γ-CD, octakis-(2,3-O-dimethyl, 6-O-sulfo)-γ-CD] | 110 ± 15 | 145 ± 15 | 105 ± 7 | 90 ± 20 | 110 ± 45 | 200 ± 35 | 165 ± 25 | 125 ± 20 | 70 ± 10 | 140 ± 20 |
| OC[C@H]1O[C@@H]2O[C@H]3[C@H](O)[C@@H](O)[C@@H](O[C@H]4[C@H](O)[C@@H](O)[C@@H](O[C@H]5[C@H](O)[C@@H](O)[C@@H](O[C@H]6[C@H](O)[C@@H](O)[C@@H](O[C@H]7[C@H](O)[C@@H](O)[C@@H](O[C@H]8[C@H](O)[C@@H](O)[C@@H](O[C@H]1[C@H](O)[C@H]2O)O[C@@H]8CO)O[C@@H]7CO)O[C@@H]6CO)O[C@@H]5CN1CCCCC1)O[C@@H]4CO)O[C@@H]3CO [PIP-β-CD, 6-monodeoxy-6-piperidine-β-CD] | < 10 | < 10 | < 10 | < 10 | – | < 10 | – | – | – | – |
| OC[C@H]1O[C@@H]2O[C@H]3[C@H](O)[C@@H](O)[C@@H](O[C@H]4[C@H](O)[C@@H](O)[C@@H](O[C@H]5[C@H](O)[C@@H](O)[C@@H](O[C@H]6[C@H](O)[C@@H](O)[C@@H](O[C@H]7[C@H](O)[C@@H](O)[C@@H](O[C@H]8[C@H](O)[C@@H](O)[C@@H](O[C@H]1[C@H](O)[C@H]2O)O[C@@H]8CO)O[C@@H]7CO)O[C@@H]6CO)O[C@@H]5CN1CCCC1)O[C@@H]4CO)O[C@@H]3CO [PYR-β-CD, 6-monodeoxy-6-pyrrolidine-β-CD] | 215 ± 30 | – | 105 ± 15 | 640 ± 145 | 430 ± 50 | 115 ± 20 | – | – | – | – |
